Test results published in BindingDB's records for doi:10.1021/jm010496a (Pfizer, 2002).
pIC50: −log10 of the molar value.

Target: Fructose-1,6-bisphosphatase 1 (Sus scrofa) (UniProt P00636)
Assay: Concentration required for 50% Inhibition against recombinant wild type pig enzyme (F16BP) Fructose-1,6-bisphosphatase

Fructose-1,6-bisphosphatase 1 (Sus scrofa), sequence (P00636 whole entry, looked up): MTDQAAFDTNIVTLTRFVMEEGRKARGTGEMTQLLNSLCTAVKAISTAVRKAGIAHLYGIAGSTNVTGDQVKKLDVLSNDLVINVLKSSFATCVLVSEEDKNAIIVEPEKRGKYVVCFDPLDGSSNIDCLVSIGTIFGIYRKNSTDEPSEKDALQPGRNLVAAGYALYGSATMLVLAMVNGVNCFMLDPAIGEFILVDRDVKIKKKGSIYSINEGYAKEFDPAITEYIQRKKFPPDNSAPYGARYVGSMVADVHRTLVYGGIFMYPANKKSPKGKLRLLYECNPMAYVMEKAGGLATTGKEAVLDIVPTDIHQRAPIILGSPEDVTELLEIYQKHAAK

pIC50: 5.02
SMILES: CCOc1cc2nc(CN(C)C)nc(Nc3cccc(-c4csc(C(N)=O)n4)c3)c2cc1OCC [4-[3-(2-Dimethylaminomethyl-6,7-diethoxy-quinazolin-4-ylamino)-phenyl]-thiazole-2-carboxylic acid amide]
